{"source": "patent US20100009935A1", "about": "“RESISTANCE-REPELLENT […] INHIBITORS” (priority 2002, published 2010)", "format_in_all_cases": "cell-based", "key": {"HIV-1Ba-L": {"system": "HIV-1Ba-L", "assay": "microbe, parasite or virus in culture", "settings": "Human immunodeficiency virus 1, 168 h, PBNC (PHA-PBMC), p24 production, day 7, read-out: MEAN IC50 (μM) ± SDs", "protocol": "(§1) The sensitivities of HIV-1LAI, HIV-1Ba-L, HIV-2EHO and the primary HIV-1 isolates against various drugs were determined as previously described with minor modifications (Shiraska et al., Proc. Natl. Acad. Sci. USA, 92, 2398-2402 (1995))."}, "HIV-1LAI": {"system": "HIV-1LAI", "assay": "microbe, parasite or virus in culture", "settings": "day 7, read-out: MEAN IC50 (μM) ± SDs", "protocol": "as §1"}, "HIV-2EHO": {"system": "HIV-2EHO", "assay": "Drug sensitivity of HIV-2EHO in MT-2 cells, MTT assay", "settings": "Human immunodeficiency virus 2, MT2, 168 h, HT-2 (footnote: MT-2 cells), day 7, read-out: MEAN IC50 (μM) ± SDs", "protocol": "as §1"}, "[1]": {"system": "HIV-1ERS104pre (wild-type clinical strain)", "assay": "PI sensitivity of wild-type clinical isolate in PHA-PBMC, p24"}, "HIV-1 clinical isolate 1": {"system": "HIV-1 clinical isolate 1", "assay": "PI sensitivity of PI-resistant clinical isolate 1 in PHA-PBMC, p24"}, "HIV-1 clinical isolate 2": {"system": "HIV-1 clinical isolate 2", "assay": "PI sensitivity of PI-resistant clinical isolate 2 in PHA-PBMC, p24"}, "HIV-1 clinical isolate 3": {"system": "HIV-1 clinical isolate 3", "assay": "PI sensitivity of PI-resistant clinical isolate 3 in PHA-PBMC, p24"}, "HIV-1 clinical isolate 4": {"system": "HIV-1 clinical isolate 4", "assay": "PI sensitivity of PI-resistant clinical isolate 4 in PHA-PBMC, p24"}, "HIV-1 clinical isolate 5": {"system": "HIV-1 clinical isolate 5", "assay": "PI sensitivity of PI-resistant clinical isolate 5 in PHA-PBMC, p24"}, "HIV-1 clinical isolate 6": {"system": "HIV-1 clinical isolate 6", "assay": "PI sensitivity of PI-resistant clinical isolate 6 in PHA-PBMC, p24"}, "HIV-1 clinical isolate 7": {"system": "HIV-1 clinical isolate 7", "assay": "PI sensitivity of PI-resistant clinical isolate 7 in PHA-PBMC, p24"}, "HIV-1 clinical isolate 8": {"system": "HIV-1 clinical isolate 8", "assay": "PI sensitivity of PI-resistant clinical isolate 8 in PHA-PBMC, p24"}, "[2]": {"system": "highly cross-resistant HIV-1 strains derived from AIDS patients"}, "HIV-1NL4-3": {"system": "HIV-1NL4-3"}, "HIV-1UIC-P62": {"system": "HIV-1UIC-P62", "assay": "PI sensitivity of compound 1-selected HIV-1UIC-P62 in MT-2 cells, MTT assay", "settings": "Human immunodeficiency virus 1, MT2, 168 h, HIV-1UIC-P62 (L10F, A28S, M46I, I50V, A71V, N88D), day 7"}, "HIV-1APV-P30": {"system": "HIV-1APV-P30", "assay": "PI sensitivity of APV-selected HIV-1APV-P30 in MT-2 cells, MTT assay"}}, "note": "Like-named read-outs stand apart in the source and are kept apart here."}
{"smiles": "CC(C)(C)NC(=O)[C@@H]1C[C@@H]2CCCC[C@@H]2CN1C[C@@H](O)[C@H](Cc1ccccc1)NC(=O)[C@H](CC(N)=O)NC(=O)c1ccc2ccccc2n1", "note": "[SQV, Saquinavir]", "values": [{"measurement": "IC50", "setting": "HIV-1Ba-L", "result": "0.014 ± 0.01", "unit": "µM"}, {"measurement": "IC50", "setting": "HIV-1LAI; Human immunodeficiency virus 1, 168 h, PBMC (PHA-PBMC), p24 production", "result": "0.011 ± 0.005", "unit": "µM"}, {"measurement": "IC50", "setting": "HIV-1LAI; Human immunodeficiency virus 1, MT2, 168 h, HT-2 (footnote: MT-2 cells), MTT assay", "result": "0.023 ± 0.002", "unit": "µM"}, {"measurement": "IC50", "setting": "HIV-2EHO", "result": "0.004 ± 0.0005", "unit": "µM"}, {"measurement": "IC50", "setting": "[1]; Human immunodeficiency virus 1, read-out: IC50 μM", "result": 0.03, "unit": "µM"}, {"measurement": "FOLD CHANGE of IC50", "setting": "[1]; wild type HIV-1ERS104pre, reference (=1)", "result": "(1) fold"}, {"measurement": "IC50", "setting": "HIV-1 clinical isolate 1; Human immunodeficiency virus 1, isolate 1: L10I, K14R, L33I, N36I, H46I, F53L, K55R, I62V, L63P, A71V, G73S, V82A, L90M, I93L, PHA-PBMC, p24", "result": 270, "unit": "nM"}, {"measurement": "FOLD CHANGE of IC50", "setting": "HIV-1 clinical isolate 1; isolate 1 compared to HIV-1wt (HIV-1ERS104pre)", "result": "(27) fold"}, {"measurement": "IC50", "setting": "HIV-1 clinical isolate 2; Human immunodeficiency virus 1, isolate 2: L10I, I15V, K20R, N36I, H46L, I54V, K55R, I62V, L63P, K70D, V82A, L89N, PHA-PBMC, p24", "result": 37, "unit": "nM"}, {"measurement": "FOLD CHANGE of IC50", "setting": "HIV-1 clinical isolate 2; isolate 2 compared to HIV-1wt (HIV-1ERS104pre)", "result": "(4) fold"}, {"measurement": "IC50", "setting": "HIV-1 clinical isolate 3; Human immunodeficiency virus 1, isolate 3: L10I, I15V, E35D, N37E, K45R, I54V, L63P, A71V, V82I, L90N, I93L, C95F, PHA-PBMC, p24", "result": 36, "unit": "nM"}, {"measurement": "FOLD CHANGE of IC50", "setting": "HIV-1 clinical isolate 3; isolate 3 compared to HIV-1wt (HIV-1ERS104pre)", "result": "(4) fold"}, {"measurement": "IC50", "setting": "HIV-1 clinical isolate 4; Human immunodeficiency virus 1, isolate 4: L10I, V11I, T12E, I15V, L19I, B41K, H46L, L63P, A71T, V82A, L90M, PHA-PBMC, p24", "result": 33, "unit": "nM"}, {"measurement": "FOLD CHANGE of IC50", "setting": "HIV-1 clinical isolate 4; isolate 4 compared to HIV-1wt (HIV-1ERS104pre)", "result": "(3) fold"}, {"measurement": "IC50", "setting": "HIV-1 clinical isolate 5; Human immunodeficiency virus 1, isolate 5: L10I, K43T, N46L, I54L, L63P, A71T, V82A, L90N, D92K, PHA-PBMC, p24", "result": 310, "unit": "nM"}, {"measurement": "FOLD CHANGE of IC50", "setting": "HIV-1 clinical isolate 5; isolate 5 compared to HIV-1wt (HIV-1ERS104pre)", "result": "(31) fold"}, {"measurement": "IC50", "setting": "HIV-1 clinical isolate 6; Human immunodeficiency virus 1, isolate 6: L10I, K14R, B41K, H46L, I54V, L63P, A71V, V82A, L90M, I93L, PHA-PBMC, p24", "result": 190, "unit": "nM"}, {"measurement": "FOLD CHANGE of IC50", "setting": "HIV-1 clinical isolate 6; isolate 6 compared to HIV-1wt (HIV-1ERS104pre)", "result": "(19) fold"}, {"measurement": "IC50", "setting": "HIV-1 clinical isolate 7; Human immunodeficiency virus 1, isolate 7: L10I, L24I, L33F, E35D, H36I, H37S, N46L, I54V, R57K, I62V, L63P, A71V, G73S, V82A, PHA-PBMC, p24", "result": 120, "unit": "nM"}, {"measurement": "FOLD CHANGE of IC50", "setting": "HIV-1 clinical isolate 7; isolate 7 compared to HIV-1wt (HIV-1ERS104pre)", "result": "(12) fold"}, {"measurement": "IC50", "setting": "HIV-1 clinical isolate 8; Human immunodeficiency virus 1, isolate 8: L10R, H37D, N46I, I62V, L63P, A71V, G73S, V77I, V82T, L90M, I93L, PHA-PBMC, p24", "result": 42, "unit": "nM"}, {"measurement": "FOLD CHANGE of IC50", "setting": "HIV-1 clinical isolate 8; isolate 8 compared to HIV-1wt (HIV-1ERS104pre)", "result": "(4) fold"}, {"measurement": "level of resistance (fold), range over the isolates", "setting": "[2]; compared to wild-type clinical strain HIV-1ERS104pre", "result": "3-31 fold"}, {"measurement": "antiviral activity against patient isolates with multiple mutations compared with wild type HIV strains (in words)", "setting": "[2]; multidrug resistant patient isolates", "result": "dramatically less potent"}, {"measurement": "FOLD CHANGE of IC50", "setting": "HIV-1NL4-3; HIV-1NL4-3, reference (=1)", "result": "(1) fold"}, {"measurement": "IC50", "setting": "HIV-1NL4-3; Human immunodeficiency virus 1, MT2, 168 h, HIV-1NL4-3 (wild type), MT-2 cells, MTT assay, day 7", "result": 19, "unit": "nM"}, {"measurement": "IC50", "setting": "HIV-1UIC-P62", "result": 10, "unit": "nM"}, {"measurement": "FOLD CHANGE of IC50", "setting": "HIV-1APV-P30; HIV-1APV-P30 compared to HIV-1NL4-3 (wild type)", "result": "(2) fold"}, {"measurement": "IC50", "setting": "HIV-1APV-P30; Human immunodeficiency virus 1, MT2, 168 h", "result": 35, "unit": "nM"}]}
